The test addresses T1, human αVβ6 (Homo sapiens, UniProt P06756+P18564).
T1 construct: purchased R & D systems 3817-AV
Put plainly: human αVβ6 HTRF binding assay. Conditions: recombinant human αVβ6 integrin, FITC-conjugated fibronectin. A digest of the protocol: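 HTRF binding in 20 mM Tris pH 7.4 with 1 mM MgCl2, 1 mM MnCl2, 0.01% Tween 20 and 0.01% BSA. For αVβ6, biotinylated integrin (1.25 nM) and FITC-fibronectin (5 nM) were incubated 1 h at RT, then streptavidin-terbium (0.625 nM) was added overnight in the dark. An SPA-based fibronectin binding format was an alternative.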
(In general: TR-FRET usually uses a lanthanide donor and a delayed reading to cut background.)

A word on the IC50: it is the concentration needed to halve the response being measured.

T1 sequence (P06756 31-992 limits assumed): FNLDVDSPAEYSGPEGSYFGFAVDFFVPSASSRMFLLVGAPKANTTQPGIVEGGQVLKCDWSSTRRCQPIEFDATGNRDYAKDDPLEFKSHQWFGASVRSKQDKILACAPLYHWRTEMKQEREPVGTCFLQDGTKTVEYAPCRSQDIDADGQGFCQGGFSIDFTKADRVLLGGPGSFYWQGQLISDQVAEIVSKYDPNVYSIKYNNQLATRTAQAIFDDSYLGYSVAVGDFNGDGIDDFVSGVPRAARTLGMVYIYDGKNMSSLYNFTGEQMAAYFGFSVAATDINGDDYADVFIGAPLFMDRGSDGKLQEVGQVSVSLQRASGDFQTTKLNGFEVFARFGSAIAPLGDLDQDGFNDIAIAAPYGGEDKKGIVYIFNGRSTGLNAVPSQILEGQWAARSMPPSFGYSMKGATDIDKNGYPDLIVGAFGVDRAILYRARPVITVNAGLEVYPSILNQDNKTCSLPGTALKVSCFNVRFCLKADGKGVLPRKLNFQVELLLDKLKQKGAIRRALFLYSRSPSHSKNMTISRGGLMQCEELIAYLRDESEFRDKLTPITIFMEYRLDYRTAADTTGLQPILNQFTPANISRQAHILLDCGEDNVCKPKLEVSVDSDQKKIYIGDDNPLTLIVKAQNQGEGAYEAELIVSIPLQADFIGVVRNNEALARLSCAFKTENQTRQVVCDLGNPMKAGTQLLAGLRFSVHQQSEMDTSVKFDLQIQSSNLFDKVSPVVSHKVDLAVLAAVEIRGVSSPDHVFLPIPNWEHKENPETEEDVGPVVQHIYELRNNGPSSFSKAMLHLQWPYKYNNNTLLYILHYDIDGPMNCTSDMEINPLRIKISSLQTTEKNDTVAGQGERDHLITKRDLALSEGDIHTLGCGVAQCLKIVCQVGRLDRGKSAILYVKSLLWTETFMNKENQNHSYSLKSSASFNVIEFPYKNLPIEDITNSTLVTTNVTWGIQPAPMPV
T1 sequence (P18564 22-707 limits assumed): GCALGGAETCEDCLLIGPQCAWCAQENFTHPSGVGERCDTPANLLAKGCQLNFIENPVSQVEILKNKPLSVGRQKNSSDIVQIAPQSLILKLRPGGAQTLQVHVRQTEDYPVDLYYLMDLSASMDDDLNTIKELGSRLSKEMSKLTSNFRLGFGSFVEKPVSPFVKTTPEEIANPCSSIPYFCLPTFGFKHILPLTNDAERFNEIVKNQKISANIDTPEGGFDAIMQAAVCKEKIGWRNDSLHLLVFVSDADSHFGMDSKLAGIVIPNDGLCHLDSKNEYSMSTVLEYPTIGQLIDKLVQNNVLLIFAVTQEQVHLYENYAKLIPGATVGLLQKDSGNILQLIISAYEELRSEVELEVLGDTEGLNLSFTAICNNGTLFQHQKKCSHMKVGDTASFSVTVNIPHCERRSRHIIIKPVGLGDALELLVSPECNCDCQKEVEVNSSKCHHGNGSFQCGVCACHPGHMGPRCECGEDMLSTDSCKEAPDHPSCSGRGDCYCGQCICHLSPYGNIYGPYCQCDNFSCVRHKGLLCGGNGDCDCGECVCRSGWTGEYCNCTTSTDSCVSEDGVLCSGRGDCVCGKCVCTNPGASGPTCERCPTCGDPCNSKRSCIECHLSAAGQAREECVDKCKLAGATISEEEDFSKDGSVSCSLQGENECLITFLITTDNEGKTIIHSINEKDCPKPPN

On to `Cn1cc2ncc(C(CC(=O)O)n3ncc4cc(OCCc5ccc6c(n5)NCCC6)ccc43)cc2n1` (centres unmarked) [Example 136, 3-(2-Methyl-2H-pyrazolo[4,3-b]pyridin-6-yl)-3-(5-(2-(5,6,7,8-tetrahydro-1,8-naphthyridin-2-yl)ethoxy)-1H-indazol-1-yl)propanoic acid], for which the IC50 amounted to 41 nM.
As for `Cn1ncc2ncc(C(CC(=O)O)n3ncc4cc(OCCc5ccc6c(n5)NCCC6)ccc43)cc21` (centres unmarked) [Example 137, 3-(1-Methyl-1H-pyrazolo[4,3-b]pyridin-6-yl)-3-(5-(2-(5,6,7,8-tetrahydro-1,8-naphthyridin-2-yl)ethoxy)-1H-indazol-1-yl)propanoic acid], the IC50 amounted to 7 nM.
The same measure for `O=C(O)C[C@H](c1cncc(C2OCCO2)c1)n1ncc2cc(OCCc3ccc4c(n3)NCCC4)ccc21` [Example 138, (R)-3-(5-(1,3-dioxolan-2-yl)pyridin-3-yl)-3-(5-(2-(5,6,7,8-tetrahydro-1,8-naphthyridin-2-yl)ethoxy)-1H-indazol-1-yl)propanoic acid]: 43 nM; for `O=C(O)C[C@@H](c1cncc(C2OCCO2)c1)n1ncc2cc(OCCc3ccc4c(n3)NCCC4)ccc21` [Example 139, (S)-3-(5-(1,3-dioxolan-2-yl)pyridin-3-yl)-3-(5-(2-(5,6,7,8-tetrahydro-1,8-naphthyridin-2-yl)ethoxy)-1H-indazol-1-yl)propanoic acid]: 4.7 nM; for `Cn1cnc2ncc(C(CC(=O)O)n3ncc4cc(OCCc5ccc6c(n5)NCCC6)ccc43)cc21` (centres unmarked) [Example 140, 3-(1-methyl-1H-imidazo[4,5-b]pyridin-6-yl)-3-(5-(2-(5,6,7,8-tetrahydro-1,8-naphthyridin-2-yl)ethoxy)-1H-indazol-1-yl)propanoic acid]: 5.7 nM.
In the case of `O=C(O)CC(c1cncc(-c2ccn[nH]2)c1)n1ncc2cc(OCCc3ccc4c(n3)NCCC4)ccc21` (centres unmarked) [Example 141, 3-(5-(1H-pyrazol-5-yl)pyridin-3-yl)-3-(5-(2-(5,6,7,8-tetrahydro-1,8-naphthyridin-2-yl)ethoxy)-1H-indazol-1-yl)propanoic acid], the IC50 was 8.2 nM.
In the case of `O=C(O)CC(c1cncc(N2CCOCC2)n1)n1ncc2cc(OCCc3ccc4c(n3)NCCC4)ccc21` (centres unmarked) [Example 142, 3-(6-morpholinopyrazin-2-yl)-3-(5-(2-(5,6,7,8-tetrahydro-1,8-naphthyridin-2-yl)ethoxy)-1H-indazol-1-yl)propanoic acid], the IC50 was 36 nM.
The figure for `Cn1cc(-c2cncc(C(CC(=O)O)n3ncc4cc(OCCc5ccc6c(n5)NCCC6)ccc43)c2)cn1` (centres unmarked) [Example 143, 3-(5-(1-methyl-1H-pyrazol-4-yl)pyridin-3-yl)-3-(5-(2-(5,6,7,8-tetrahydro-1,8-naphthyridin-2-yl)ethoxy)-1H-indazol-1-yl)propanoic acid] is 9.8 nM.
The same measure for `CC(C)(O)c1cncc(C(CC(=O)O)n2ncc3cc(OCCc4ccc5c(n4)NCCC5)ccc32)c1` (centres unmarked) [Example 144, 3-(5-(2-hydroxypropan-2-yl)pyridin-3-yl)-3-(5-(2-(5,6,7,8-tetrahydro-1,8-naphthyridin-2-yl)ethoxy)-1H-indazol-1-yl)propanoic acid]: 5 nM; for `CC(C)(O)c1cncc([C@@H](CC(=O)O)n2ncc3cc(OCCc4ccc5c(n4)NCCC5)ccc32)c1` [Example 145, (R)-3-(5-(2-hydroxypropan-2-yl)pyridin-3-yl)-3-(5-(2-(5,6,7,8-tetrahydro-1,8-naphthyridin-2-yl)ethoxy)-1H-indazol-1-yl)propanoic acid]: 1900 nM.
The figure for `CC(C)(O)c1cncc([C@H](CC(=O)O)n2ncc3cc(OCCc4ccc5c(n4)NCCC5)ccc32)c1` [Example 146, (S)-3-(5-(2-hydroxypropan-2-yl)pyridin-3-yl)-3-(5-(2-(5,6,7,8-tetrahydro-1,8-naphthyridin-2-yl)ethoxy)-1H-indazol-1-yl)propanoic acid] is 5.2 nM.
As for `COc1ncc([C@@H](CC(=O)O)n2ncc3cc(OCCc4ccc5c(n4)NCCC5)ccc32)cn1` [Example 147, (R)-3-(2-methoxypyrimidin-5-yl)-3-(5-(2-(5,6,7,8-tetrahydro-1,8-naphthyridin-2-yl)ethoxy)-1H-indazol-1-yl)propanoic acid], the IC50 amounted to 620 nM.
The figure for `COc1ncc([C@H](CC(=O)O)n2ncc3cc(OCCc4ccc5c(n4)NCCC5)ccc32)cn1` [Example 148, (S)-3-(2-methoxypyrimidin-5-yl)-3-(5-(2-(5,6,7,8-tetrahydro-1,8-naphthyridin-2-yl)ethoxy)-1H-indazol-1-yl)propanoic acid] is 18 nM; for `COc1cncc(C(CC(=O)O)n2ncc3cc(OCCc4ccc5c(n4)NCCC5)ccc32)n1` (centres unmarked) [Example 149, 3-(6-methoxypyrazin-2-yl)-3-(5-(2-(5,6,7,8-tetrahydro-1,8-naphthyridin-2-yl)ethoxy)-1H-indazol-1-yl)propanoic acid] it is 2300 nM; for `O=C(O)C[C@H](c1cncc(N2CCCC2=O)c1)n1ncc2cc(OCCc3ccc4c(n3)NCCC4)ccc21` [Example 150, (R)-3-(5-(2-oxopyrrolidin-1-yl)pyridin-3-yl)-3-(5-(2-(5,6,7,8-tetrahydro-1,8-naphthyridin-2-yl)ethoxy)-1H-indazol-1-yl)propanoic acid] it is 110 nM.
The same measure for `O=C(O)C[C@@H](c1cncc(N2CCCC2=O)c1)n1ncc2cc(OCCc3ccc4c(n3)NCCC4)ccc21` [Example 151, (5)-3-(5-(2-oxopyrrolidin-1-yl)pyridin-3-yl)-3-(5-(2-(5,6,7,8-tetrahydro-1,8-naphthyridin-2-yl)ethoxy)-1H-indazol-1-yl)propanoic acid]: 1 nM; for `O=C(O)CC(c1cncc(C(=O)N2CCOCC2)c1)n1ncc2cc(OCCc3ccc4c(n3)NCCC4)ccc21` (centres unmarked) [Example 152, 3-(5-(morpholine-4-carbonyl)pyridin-3-yl)-3-(5-(2-(5,6,7,8-tetrahydro-1,8-naphthyridin-2-yl)ethoxy)-1H-indazol-1-yl)propanoic acid]: 22 nM.
The figure for `CN(C)C(=O)c1cncc(C(CC(=O)O)n2ncc3cc(OCCc4ccc5c(n4)NCCC5)ccc32)c1` (centres unmarked) [Example 153, 3-(5-(dimethylcarbamoyl)pyridin-3-yl)-3-(5-(2-(5,6,7,8-tetrahydro-1,8-naphthyridin-2-yl)ethoxy)-1H-indazol-1-yl)propanoic acid] is 17 nM; for `CN1CCN(C(=O)c2cncc(C(CC(=O)O)n3ncc4cc(OCCc5ccc6c(n5)NCCC6)ccc43)c2)CC1` (centres unmarked) [Example 154, 3-(5-(4-methylpiperazine-1-carbonyl)pyridin-3-yl)-3-(5-(2-(5,6,7,8-tetrahydro-1,8-naphthyridin-2-yl)ethoxy)-1H-indazol-1-yl)propanoic acid] it is 29 nM.
Turning to `O=C(O)CC(c1cncc(C2CC2)c1)n1ncc2cc(OCCc3ccc4c(n3)NCCC4)ccc21` (centres unmarked) [Example 155, 3-(5-cyclopropylpyridin-3-yl)-3-(5-(2-(5,6,7,8-tetrahydro-1,8-naphthyridin-2-yl)ethoxy)-1H-indazol-1-yl)propanoic acid], the concentration for half-maximal inhibition (IC50) was found to be 5.3 nM.
As to `CN1CCN(c2cncc(C(CC(=O)O)n3ncc4cc(OCCc5ccc6c(n5)NCCC6)ccc43)c2)CC1` (centres unmarked) [Example 156, 3-(5-(4-methylpiperazin-1-yl)pyridin-3-yl)-3-(5-(2-(5,6,7,8-tetrahydro-1,8-naphthyridin-2-yl)ethoxy)-1H-indazol-1-yl)propanoic acid], the IC50 was 8.8 nM.
As for `O=C(O)CC(c1cncc(C(=O)N2CCC2)c1)n1ncc2cc(OCCc3ccc4c(n3)NCCC4)ccc21` (centres unmarked) [Example 157, 3-(5-(azetidine-1-carbonyl)pyridin-3-yl)-3-(5-(2-(5,6,7,8-tetrahydro-1,8-naphthyridin-2-yl)ethoxy)-1H-indazol-1-yl)propanoic acid], the IC50 is 32 nM.
The figure for `CN(C)CCNC(=O)c1cncc(C(CC(=O)O)n2ncc3cc(OCCc4ccc5c(n4)NCCC5)ccc32)c1` (centres unmarked) [Example 158, 3-(5-((2-(dimethylamino)ethyl)carbamoyl)pyridin-3-yl)-3-(5-(2-(5,6,7,8-tetrahydro-1,8-naphthyridin-2-yl)ethoxy)-1H-indazol-1-yl)propanoic acid] is 13 nM.
Turning to `Cc1ncc([C@H](CC(=O)O)n2ncc3cc(OCCc4ccc5c(n4)NCCC5)ccc32)cn1` [Example 159, (S)-3-(2-methylpyrimidin-5-yl)-3-(5-(2-(5,6,7,8-tetrahydro-1,8-naphthyridin-2-yl)ethoxy)-1H-indazol-1-yl)propanoic acid], the IC50 was 47 nM.
The same measure for `Cc1ncc([C@@H](CC(=O)O)n2ncc3cc(OCCc4ccc5c(n4)NCCC5)ccc32)cn1` [Example 160, (R)-3-(2-methylpyrimidin-5-yl)-3-(5-(2-(5,6,7,8-tetrahydro-1,8-naphthyridin-2-yl)ethoxy)-1H-indazol-1-yl)propanoic acid]: 2600 nM; for `O=C(O)CC(c1cncc(-n2cccn2)c1)n1ncc2cc(OCCc3ccc4c(n3)NCCC4)ccc21` (centres unmarked) [Example 161, 3-(5-(1H-pyrazol-1-yl)pyridin-3-yl)-3-(5-(2-(5,6,7,8-tetrahydro-1,8-naphthyridin-2-yl)ethoxy)-1H-indazol-1-yl)propanoic acid]: 5.5 nM.
The figure for `CCCC(CC(=O)O)n1ncc2cc(OCCc3ccc4c(n3)NCCC4)ccc21` (centres unmarked) [Example 162, 3-(5-(2-(5,6,7,8-tetrahydro-1,8-naphthyridin-2-yl)ethoxy)-1H-indazol-1-yl)hexanoic acid] is 730 nM; for `CN(C)c1cncc(C(CC(=O)O)n2ncc3cc(OCCc4ccc5c(n4)NCCC5)ccc32)c1` (centres unmarked) [Example 163, 3-(5-(dimethylamino)pyridin-3-yl)-3-(5-(2-(5,6,7,8-tetrahydro-1,8-naphthyridin-2-yl)ethoxy)-1H-indazol-1-yl)propanoic acid] it is 3.8 nM; for `O=C(O)CC(C1CCCCC1)n1ncc2cc(OCCc3ccc4c(n3)NCCC4)ccc21` (centres unmarked) [Example 164, 3-cyclohexyl-3-(5-(2-(5,6,7,8-tetrahydro-1,8-naphthyridin-2-yl)ethoxy)-1H-indazol-1-yl)propanoic acid] it is 3200 nM.

These data come from patent US10745384B2, “Indazole derivatives as αv integrin antagonists” (BRISTOL-MYERS SQUIBB COMPANY, priority 2016, dated 2020).
